The source of these data is patent publication US20020010205A1, “N-linked sulfone of heterocyclic thioester hair growth compositions and uses” (GPI NIL HOLDINGS, INC., priority 1998, published 2002).

Each structure is given as a SMILES string. Entries after “also recorded” stand apart in the source; their conditions may differ.

Sequence of FKBP12 (P62942 whole entry, species assumed): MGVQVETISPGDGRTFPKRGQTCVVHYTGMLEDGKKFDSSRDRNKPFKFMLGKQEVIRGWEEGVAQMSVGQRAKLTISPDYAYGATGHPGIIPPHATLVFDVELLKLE

The first assay addresses FKBP12 (Homo sapiens, UniProt P62942). The assay is described as follows: Ki test procedure: inhibition of peptidyl-prolyl isomerase (rotamase) activity, chymotrypsin-coupled assay. Format: biochemical. The conditions noted are these: apparent Ki, FKBP rotamase inhibition. An excerpt:
The inhibition of the prolyl peptidyl cis-trans isomerase activity of FKBP may be measured as an indicator of this affinity.
Inhibition of the peptidyl-prolyl isomerase (rotamase) activity of the compounds used in the inventive methods and pharmaceutical compositions can be evaluated by known methods described in the literature (Harding et al., Nature, 1989, 341:758-760; Holt et al. J. Am. Chem. Soc., 115:9923-9938). These values are obtained as apparent Ki's and are presented for representative compounds in TABLE I.
The cis-trans isomerization of an alanine-proline bond in a model substrate, N-succinyl-Ala-Ala-Pro-Phe-p-nitroanilide, is monitored spectrophotometrically in a chymotrypsin-coupled assay, which releases para-nitroanilide from the trans form of the substrate. The inhibition of this reaction caused by the addition of different concentrations of inhibitor is determined, and the data is analyzed as a change in first-order rate constant as a function of inhibitor concentration to yield the apparent Ki values.
In a plastic cuvette are added 950 Ml of ice cold assay buffer (25 mM HEPES, pH 7.8, 100 mM NaCl), […] of FKBP (2.5 mM in 10 mM Tris-Cl pH 7.5, 100 mM NaCl, 1 mM dithiothreitol), […] of chymotrypsin (50 mg/ml in 1 mM HCl) and […] of test compound at various concentrations in dimethyl sulfoxide. The reaction is initiated by the addition of 5 mL of substrate (succinyl-Ala-Phe-Pro-Phe-para-nitroanilide, 5 mg/mL in 2.35 mM LiCl in trifluoroethanol).
The absorbance at 390 nm versus time is monitored for 90 seconds using a spectrophotometer and the rate constants are determined from the absorbance versus time data files.
Turning to `O=C(SCCc1ccccc1)C1CCCN1S(=O)(=O)c1ccccc1` (stereo not shown) [Compound 1], the Ki is 1 to 50 nM.

In the case of `O=C(SCCc1ccccc1)C1CCCN1S(=O)(=O)Cc1ccccc1` (stereo not shown) [Compound 2], the Ki is 51 to 200 nM.

As to `Cc1ccc(S(=O)(=O)N2CCCC2C(=O)SCCc2ccccc2)cc1` (stereo not shown) [Compound 3], the Ki lay in the range of 51 to 200 nM.

Turning to `COc1ccc(CCCSC(=O)C2CCCN2S(=O)(=O)c2ccccc2)cc1` [Compound 4, 3-(para-Methoxyphenyl)-1-propylmercaptyl(2S)-N-(benzenesulfonyl)pyrrolidine-2-carboxylate], the Ki lay in the range of 51 to 200 nM.

Regarding `COc1ccc(CCCSC(=O)C2CCCN2S(=O)(=O)Cc2ccccc2)cc1` [Compound 5, 3-(para-Methoxyphenyl)-1-propylmercaptyl (2S)-N-(α-toluenesulfonyl)pyrrolidine-2-carboxylate], the Ki was in the range of 51 to 200 nM.

Consider `COc1ccc(CCCSC(=O)C2CCCN2S(=O)(=O)c2ccc(C)cc2)cc1` (stereo not shown) [Compound 6], for which the Ki is 201 to 500 nM.

For `O=C(SCCC(c1ccccc1)c1ccccc1)C1CCCN1S(=O)(=O)c1ccccc1` (stereo not shown) [Compound 7], the Ki was in the range of 51 to 200 nM.

Take `O=C(SCCC(c1ccccc1)c1ccccc1)C1CCCN1S(=O)(=O)Cc1ccccc1` (stereo not shown) [Compound 8]: the Ki lay within 1 to 50 nM.

`Cc1ccc(S(=O)(=O)N2CCCC2C(=O)SCCC(c2ccccc2)c2ccccc2)cc1` (stereo not shown) [Compound 9]: the Ki fell in the range of 1 to 50 nM.

With `O=C(SCCCCc1ccccc1)C1CCCCN1S(=O)(=O)c1ccccc1` (stereo not shown) [Compound 10], the Ki was in the range of 1 to 50 nM.

Take `O=C(SCCCCc1ccccc1)C1CCCCN1S(=O)(=O)Cc1ccccc1` (stereo not shown) [Compound 11]: the Ki fell in the range of 51 to 200 nM.

Turning to `Cc1ccc(S(=O)(=O)N2CCCCC2C(=O)SCCCCc2ccccc2)cc1` (stereo not shown) [Compound 12], the Ki lay in the range of 1 to 50 nM.

Regarding `COc1cc(S(=O)(=O)N2CCCCC2C(=O)SCCCCc2ccccc2)cc(OC)c1OC` (stereo not shown) [Compound 13], the Ki lay in the range of 1 to 50 nM.

Regarding `O=C(SCCCCc1ccccc1)C1CCCCN1S(=O)(=O)C1CCCCC1` (stereo not shown) [Compound 14], the Ki lay within 1 to 50 nM.

Regarding `O=C(SC(CCCc1ccccc1)CCCc1ccccc1)C1CCCCN1S(=O)(=O)c1ccccc1` (stereo not shown) [Compound 15], the Ki was in the range of 1 to 50 nM.

As for `O=C(SC(CCCc1ccccc1)CCCc1ccccc1)C1CCCCN1S(=O)(=O)Cc1ccccc1` (stereo not shown) [Compound 16], the Ki lay within 51 to 200 nM.

Tested on in a further assay: not given
Experiment: not given
Particulars: topical, but not oral, application; cited from earlier work.
Take `C=CC[C@@H]1/C=C(\C)C[C@H](C)C[C@H](OC)[C@H]2O[C@@](O)(C(=O)C(=O)N3CCCC[C@H]3C(=O)O[C@H](/C(C)=C/[C@@H]3CC[C@@H](O)[C@H](OC)C3)[C@H](C)[C@@H](O)CC1=O)[C@H](C)C[C@@H]2OC` [FK506]: the “stimulation of hair growth” value is reported as “stimulates hair growth in a dose-dependent manner”.

A further assay has as its system C57 black 6 mice. The assay is described as follows: In vivo hair generation test, Experiment A (shaved C57 black 6 mice, topical). The conditions noted are these: 30 μM topical in 20% propylene glycol, 3 applications over 5 days, after six weeks. An excerpt:
Care was taken not to nick or cause abrasion to the underlaying dermal layers. The animals were in anagen growth phase, as indicated by the pinkish color of the skin. […] Hair growth was quantitated by the percent of shaved area covered by new hair growth during this time period.
For `CCC(C)(C)C(=O)C(=O)N1CCC[C@H]1C(=O)OCCCc1cccnc1` [GPI 1046, 3-(3-pyridyl)-1-propyl (2s)-1-(3,3-dimethyl-1,2-dioxopentyl)-2-pyrrolidinecarboxylate], the “hair regrowth in shaved area” value is “essentially complete hair regrowth; also recorded: essentially, complete hair regrowth”.

The subject of a further assay is C57 black 6 mice. Kind of assay: In vivo hair generation test, Experiment B (shaved C57 Black 6 mice, topical, relative hair growth index). The conditions noted are these: one micromole per milliliter topical, three times per week, 14 days after initiation of treatment. As for the experimental part: Care was taken not to nick or cause abrasion to the underlying dermal layers. The animals were in anagen growth phase when shaved. […] The animals were treated three times per week, and hair growth was evaluated 14 days after initiation of treatment.
`O=C(SCCCc1ccccc1)[C@@H]1CCCN1S(=O)(=O)Cc1ccccc1` [GPI 1312]: the “hair growth (relative hair growth index, FIG. 5)” value was “dramatic hair growth”.
